{"source": "the supplement of paper PMC10307832", "assay_in_all_cases": "relative viability (nuclei count vs DMSO), 5 days (fraction); higher = more cells survive", "key": {"IMD-0354 + Lapatinib": {"compound": "O=C(Nc1cc(C(F)(F)F)cc(C(F)(F)F)c1)c1cc(Cl)ccc1O [IMD-0354] + CS(=O)(=O)CCNCc1ccc(-c2ccc3ncnc(Nc4ccc(OCc5cccc(F)c5)c(Cl)c4)c3c2)o1 [Lapatinib] (partner 2 µM)", "in_short": "(§1)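 Lung cancer cell lines were seeded in 1536-well plates and dosed by pin tool the next day, with either a single drug or a fixed anchor-drug dose combined with five library-drug doses (not always all listed) spaced in √10 steps. Five days later, one step fixed the cells and stained their nuclei (final 0.05% Triton X-100, 1% formaldehyde, 1 ug/ml Hoechst), and nuclei were counted on 4× images. Relative viability is the nuclei count in treated wells divided by the count in vehicle wells, and each value is the median of duplicate plates.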"}, "CX-5461 + Navitoclax": {"compound": "Cc1cnc(CNC(=O)c2c(=O)c3ccc(N4CCCN(C)CC4)nc3n3c2sc2ccccc23)cn1 [CX-5461] + CC1(C)CCC(c2ccc(Cl)cc2)=C(CN2CCN(c3ccc(C(=O)NS(=O)(=O)c4ccc(N[C@H](CCN5CCOCC5)CSc5ccccc5)c(S(=O)(=O)C(F)(F)F)c4)cc3)CC2)C1 [Navitoclax] (partner 0.5 µM)", "in_short": "as §1"}, "CX-5461 + OSI-027": {"compound": "Cc1cnc(CNC(=O)c2c(=O)c3ccc(N4CCCN(C)CC4)nc3n3c2sc2ccccc23)cn1 [CX-5461] + COc1cccc2cc(-c3nc([C@H]4CC[C@H](C(=O)O)CC4)n4ncnc(N)c34)[nH]c12 [OSI-027] (partner 0.5 µM)", "in_short": "as §1"}, "IMD-0354 + Navitoclax": {"compound": "O=C(Nc1cc(C(F)(F)F)cc(C(F)(F)F)c1)c1cc(Cl)ccc1O [IMD-0354] + CC1(C)CCC(c2ccc(Cl)cc2)=C(CN2CCN(c3ccc(C(=O)NS(=O)(=O)c4ccc(N[C@H](CCN5CCOCC5)CSc5ccccc5)c(S(=O)(=O)C(F)(F)F)c4)cc3)CC2)C1 [Navitoclax] (partner 0.5 µM)", "in_short": "as §1"}}}
{"cell line": "UMC-11", "values": [{"measurement": "relative viability", "setting": "IMD-0354 + Lapatinib; first compound 0.04 µM", "result": 1.07}, {"measurement": "relative viability", "setting": "IMD-0354 + Lapatinib; first compound 0.1265 µM", "result": 0.939}, {"measurement": "relative viability", "setting": "IMD-0354 + Lapatinib; first compound 0.4 µM", "result": 0.622}, {"measurement": "relative viability", "setting": "IMD-0354 + Lapatinib; first compound 1.265 µM", "result": 0.239}, {"measurement": "relative viability", "setting": "IMD-0354 + Lapatinib; first compound 4 µM", "result": 0.232}, {"measurement": "relative viability", "setting": "CX-5461 + Navitoclax; first compound 0.01 µM", "result": 0.319}, {"measurement": "relative viability", "setting": "CX-5461 + Navitoclax; first compound 0.03162 µM", "result": 0.294}, {"measurement": "relative viability", "setting": "CX-5461 + Navitoclax; first compound 0.1 µM", "result": 0.302}, {"measurement": "relative viability", "setting": "CX-5461 + Navitoclax; first compound 0.3162 µM", "result": 0.282}, {"measurement": "relative viability", "setting": "CX-5461 + Navitoclax; first compound 1 µM", "result": 0.23}, {"measurement": "relative viability", "setting": "CX-5461 + OSI-027; first compound 0.01 µM", "result": 0.542}, {"measurement": "relative viability", "setting": "CX-5461 + OSI-027; first compound 0.03162 µM", "result": 0.431}, {"measurement": "relative viability", "setting": "CX-5461 + OSI-027; first compound 0.1 µM", "result": 0.389}, {"measurement": "relative viability", "setting": "CX-5461 + OSI-027; first compound 0.3162 µM", "result": 0.475}, {"measurement": "relative viability", "setting": "CX-5461 + OSI-027; first compound 1 µM", "result": 0.274}, {"measurement": "relative viability", "setting": "IMD-0354 + Navitoclax; first compound 0.04 µM", "result": 0.338}, {"measurement": "relative viability", "setting": "IMD-0354 + Navitoclax; first compound 0.1265 µM", "result": 0.276}, {"measurement": "relative viability", "setting": "IMD-0354 + Navitoclax; first compound 0.4 µM", "result": 0.29}, {"measurement": "relative viability", "setting": "IMD-0354 + Navitoclax; first compound 1.265 µM", "result": 0.112}, {"measurement": "relative viability", "setting": "IMD-0354 + Navitoclax; first compound 4 µM", "result": 0.149}]}
